Assay results taken from patent US20250296909A1, “NOVEL BENZENE DERIVATIVE AND IMMUNOSUPPRESSION-RELATED USE THEREOF” (PROVIBIO CO., LTD., priority 2021, published 2025).

Tests used:
[1] = system: T lymphocyte cell line Jurkat E6-1; test: Cytotoxicity experiment (CCK-8, relative cell survival); type: cell-based; conditions: 24 hours, untreated cells = 100%
How it was run: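 Relative survival versus untreated cells (set to 100%) from CCK-8 absorbance at 450 nm after 2 h dye incubation. Cells had been treated with graded compound concentrations for 24 h at 37 °C in 5% CO2, cultured in RPMI-1640 plus 10% FBS.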

[2] = system: spleen T cells; test: Cytokine secretion by anti-CD3/CD28-activated T cells (Cytometric Bead Array); type: cell-based, C57BL/6 mice; conditions: 30 μM; for secretion of IL-2: 24 hours after treatment, FIG. 3; for secretion of IFN-γ / secretion of IL-17A / secretion of TNF-α: 72 hours after treatment
Procedure: To confirm the effect of compounds of the present invention on the secretion of cytokines by T cells, the following experiment was conducted.
Spleens were harvested and minced from C57BL/6 mice at 7 weeks of age, and single cells were isolated using a strainer (40 μm pore size, SPL). Red blood cells were removed using ACK (Ammonium-Chloride-Potassium) lysis buffer to isolate only leukocytes. These were then reacted with 10 v/v % CD90.2 microbeads (130-121-278, Miltenyi Biotech.) at 4° C. for 20 minutes, resulting in the isolation of spleen T cells from magnetic-based purification. The T cells were cultured in a 96-well plate at an amount of 2×10^5 cells/well. For T cell activation, each well was treated with anti-CD3/CD28 antibodies at a concentration of 1 μg/mL. Subsequently, Vehicle (DMSO) and compounds (Compound 14, Compound 19, Compound 26, Compound 31, Compound 35, Compound 40, Compound 41, Compound 56, Compound 69, Compound 75) at a concentration of 30 μM were treated in each well, and it was cultured at 37° C. in a 5% CO2 incubator. After 24 and 72 hours, the T cell culture medium was taken, and centrifugation was performed at 13,000 rpm for 10 minutes to obtain the supernatant.
To measure the concentration of cytokines present in the T cell culture medium, Mouse Th1/Th2/Th17 Cytokine CBA Kit (Cytometric Bead Array kit) 560485 from BD Science was utilized for flow cytometry analysis. The secretion levels of IL-2 at 24 hours after each drug treatment, and IFN-γ, TNF-α, and IL-17A at 72 hours were measured after each drug treatment.

[3] = system: spleen T cells; test: T cell proliferation inhibition (CFSE, FACS), CD3/CD28-activated spleen T cells; type: cell-based, C57BL/6 mice; conditions: Table 2, 3 days, relative to CD3/CD28+DMSO; for inhibition at 10 µM / inhibition at 30 µM / inhibition at 50 µM: Mus musculus, T-cell, 72 h, read-out: Proliferation inhibition rate (%)
How it was run: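 Proliferation inhibition is expressed as a percentage versus CD3/CD28-stimulated DMSO controls, from CFSE dye dilution measured by FACS after 3 days at 37 °C. Compounds at 10, 30 and 50 μM (triplicate) on anti-CD3/CD28-activated (0.5 μg/mL each) C57BL/6 mouse spleen T cells, 2×10^5 per well.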

[4] = system: psoriasis mouse animal model; test: Psoriasis mouse animal model (imiquimod-induced); type: in vivo, BALB/c mice; conditions: 40 mg/kg intraperitoneally twice a day
Description: To confirm the therapeutic effect of compounds according to the present invention on psoriasis, a psoriasis animal model was established to evaluate the alleviation of skin lesions and changes in immune cell profiles by administering Compound 69 or Compound 83 via injection.
To establish a psoriasis mouse animal model, BALB/c mice (7 weeks old, 20 g, female) were purchased from Hana Biotech Co. and allowed to acclimate to the housing environment for one week. Afterward, the fur on the dorsal area of the mice was initially shaved using a shaver, followed by complete removal with depilatory cream (Nicrin Cream, comprising thioglycolic acid 80%, manufactured by ILDONG Pharmaceutical CO., LTD). The mice were then housed for 24 hours to confirm any wounds on their backs.
Subsequently, in order to verify the preventive and therapeutic effects of compounds according to the present invention on psoriasis, five experimental groups were established as shown in FIG. 7 and Table 5. From the second to the fifth group, Aldara® cream was applied once daily for two weeks (14 days, total of 14 applications) at a dose of 80 mg (imiquimod, 4 mg) per mouse to induce psoriasis. Furthermore, to compare the preventive and therapeutic effects of compounds according to the present invention (Compound 69 and Compound 83) on psoriasis, 40 mg/kg of the compound per mouse was dissolved in DMSO corresponding to 10% of the dosing volume, and then diluted in a mixture of Cremophor EL-PEG 400-distilled water to achieve a final ratio of DMSO: Cremophor EL:PEG 400:distilled water to 1:1:4:4 (v/v/v/v). Subsequently, the respective injections were intraperitoneally administered at a dose of 100 μL per mouse, twice a day with a 12-hour interval. For the Vehicle control group, injections excluding the drug but comprising the vehicle solution (DMSO: Cremophor EL:PEG 400:distilled water=1:1:4:4 (v/v/v/v)) were administered at a dose of 100 μL per mouse, twice a day with a 12-hour interval.
To assess the impact of each compound on immune cells in vivo, the spleens of mice treated with each compound were harvested, and cells were extracted, and cells were suspended in MACS buffer (2 mM EDTA, 0.5% FBS, 137 mM NaCl, 2.7 mM KCl, 10 mM Na2HPO4, 1.8 mM KH2PO4, Miltenyi Biotech.). For flow cytometry analysis, each mouse's splenocytes were aliquoted at 5×10^5 cells per FACS tube (5 mL round tube, Falcon). To prevent non-specific antibody binding, each tube was treated with 1 μg/mL of anti-mouse CD16/CD32 (InVivoMAb) for 30 minutes, followed by centrifugation at 13,000 rpm for 5 minutes, and resuspended in 100 μL of MACS buffer. Subsequent experiments were conducted depending on the type of immune cells to be examined.
(§1) For B cells, each FACS tube was stained with 1 μg/mL of FITC-conjugated anti-B220 antibody (eBioscience™) at 4° C. for 30 minutes, followed by washing with 2 mL of MACS buffer. Subsequently, each tube was centrifuged at 15,000 rpm for 5 minutes, the supernatant was removed, and the precipitated cells were fixed using 200 μL of 4% paraformaldehyde solution.
For T cells, each FACS tube was stained with 1 μg/mL of PerCP-Cy5.5-conjugated anti-CD3 antibody (Biolegend), FITC-conjugated anti-CD8 antibody (eBioscience™) and Cy7-conjugated anti-CD4 antibody (eBioscience™) at 4° C. for 30 minutes, followed by washing with 2 mL of MACS buffer. Subsequently, each tube was centrifuged at 15,000 rpm for 5 minutes, the supernatant was removed, and the precipitated cells were fixed using 200 μL of 4% paraformaldehyde solution.
as §1, with “macrophages,” for “B cells,”, “anti-CD11b” for “anti-B220”

[5] = flow cytometry, versus psoriasis groups, FIG. 10

In the case of `CCCCCCCCCCCCNC(=O)c1cccnc1` [Compound 19], the “Relative cell survival rate (%)” value ([1]; 10 μM) is reported as 94%, the “Relative cell survival rate (%)” value ([1]; 20 μM) is reported as 87% and the “Relative cell survival rate (%)” value ([1]; 30 μM) is reported as 82%. The “Relative cell survival rate (%)” value ([1]; 50 μM) was 83%, the “secretion of IL-2” value [2] was “significant decrease” and the “secretion of IFN-γ” value [2] was “significant decrease”. For the same molecule, the “secretion of IL-17A” value [2] was “significant decrease”, the “secretion of TNF-α” value [2] was “significant decrease” and the inhibition at 10 µM ([3]; 10 μM) was 19%. The inhibition at 30 µM ([3]; 30 μM) was 99% and the inhibition at 50 µM ([3]; 50 μM) was 100%.
With `CCCCCCCCCCCCNC(=O)c1cccnc1Oc1ccc(Cl)cc1` [Compound 26] the “Relative cell survival rate (%)” value ([1]; 10 μM) was 101%, the “Relative cell survival rate (%)” value ([1]; 20 μM) was 97% and the “Relative cell survival rate (%)” value ([1]; 30 μM) was 85%. The “Relative cell survival rate (%)” value ([1]; 50 μM) was 82%, the “secretion of IL-2” value [2] was “significant decrease” and the “secretion of IFN-γ” value [2] was “significant decrease”. The “secretion of IL-17A” value [2] was “significant decrease”, the “secretion of TNF-α” value [2] was “significant decrease” and the “Proliferation inhibition rate (%)” value ([3]; 10 μM) was 73%. For the same molecule, the “Proliferation inhibition rate (%)” value ([3]; 30 μM) was 100% and the “Proliferation inhibition rate (%)” value ([3]; 50 μM) was 100%.
With `CCCCCCCCCCCCNS(=O)(=O)c1ccccc1Br` [Compound 35] the “Relative cell survival rate (%)” value ([1]; 10 μM) was 97%, the “Relative cell survival rate (%)” value ([1]; 20 μM) was 89% and the “Relative cell survival rate (%)” value ([1]; 30 μM) was 87%. For the same molecule, the “Relative cell survival rate (%)” value ([1]; 50 μM) was 86%, the “secretion of IL-2” value [2] was “significant decrease” and the “secretion of IFN-γ” value [2] was “significant decrease”. The “secretion of IL-17A” value [2] was “significant decrease”, the “secretion of TNF-α” value [2] was “significant decrease” and the “Proliferation inhibition rate (%)” value ([3]; 10 μM) was 85%. The “Proliferation inhibition rate (%)” value ([3]; 30 μM) was 92% and the “Proliferation inhibition rate (%)” value ([3]; 50 μM) was 93%.
`CCCCCCCCCCCCNS(=O)(=O)c1c(Cl)cccc1Cl` [Compound 40] was tested, and the “Relative cell survival rate (%)” value ([1]; 10 μM) was 105%, the “Relative cell survival rate (%)” value ([1]; 20 μM) was 99% and the “Relative cell survival rate (%)” value ([1]; 30 μM) was 96%. For the same molecule, the “Relative cell survival rate (%)” value ([1]; 50 μM) was 86%, the “secretion of IL-2” value [2] was “significant decrease” and the “secretion of IFN-γ” value [2] was “significant decrease”. The “secretion of IL-17A” value [2] was “significant decrease”, the “secretion of TNF-α” value [2] was “significant decrease” and the “Proliferation inhibition rate (%)” value ([3]; 10 μM) was 86%. The “Proliferation inhibition rate (%)” value ([3]; 30 μM) was 97% and the “Proliferation inhibition rate (%)” value ([3]; 50 μM) was 97%.
For `CCCCCCCCCCCCNS(=O)(=O)c1c(C)cc(C)cc1C` [Compound 41], the “Relative cell survival rate (%)” value ([1]; 10 μM) was 85%, the “Relative cell survival rate (%)” value ([1]; 20 μM) was 83% and the “Relative cell survival rate (%)” value ([1]; 30 μM) was 82%. The “Relative cell survival rate (%)” value ([1]; 50 μM) was 80%, the “secretion of IL-2” value [2] was “significant decrease” and the “secretion of IFN-γ” value [2] was “significant decrease”. The “secretion of IL-17A” value [2] was “significant decrease”, the “secretion of TNF-α” value [2] was “significant decrease” and the “Proliferation inhibition rate (%)” value ([3]; 10 μM) was 80%. The “Proliferation inhibition rate (%)” value ([3]; 30 μM) was 100% and the “Proliferation inhibition rate (%)” value ([3]; 50 μM) was 100%.
For `CCCCCCCCCCCCNC(=O)CNC(=O)c1ccccc1Cl` [Compound 56], the “Relative cell survival rate (%)” value ([1]; 10 μM) was 92%, the “Relative cell survival rate (%)” value ([1]; 20 μM) was 91% and the “Relative cell survival rate (%)” value ([1]; 30 μM) was 89%. The “Relative cell survival rate (%)” value ([1]; 50 μM) was 86%, the “secretion of IL-2” value [2] was “significant decrease” and the “secretion of IFN-γ” value [2] was “significant decrease”. The “secretion of IL-17A” value [2] was “significant decrease”, the “secretion of TNF-α” value [2] was “significant decrease” and the “Proliferation inhibition rate (%)” value ([3]; 10 μM) was 26%. For the same molecule, the “Proliferation inhibition rate (%)” value ([3]; 30 μM) was 50% and the “Proliferation inhibition rate (%)” value ([3]; 50 μM) was 62%.
In the case of `CC(C)=CCC/C(C)=C/CNC(=O)c1cccnc1N` [Compound 75], the “Relative cell survival rate (%)” value ([1]; 10 μM) is reported as 97%, the “Relative cell survival rate (%)” value ([1]; 20 μM) is reported as 95% and the “Relative cell survival rate (%)” value ([1]; 30 μM) is reported as 86%. For the same molecule, the “Relative cell survival rate (%)” value ([1]; 50 μM) was 85%, the “secretion of IL-2” value [2] was “significant decrease” and the “secretion of IFN-γ” value [2] was “significant decrease”. For the same molecule, the “secretion of IL-17A” value [2] was “significant decrease”, the “secretion of TNF-α” value [2] was “significant decrease” and the inhibition at 10 µM ([3]; 10 μM) was 95%. The inhibition at 30 µM ([3]; 30 μM) was 98% and the inhibition at 50 µM ([3]; 50 μM) was 98%.
With `O=C(NCCCCCCCCCCCCO)c1ccccc1Br` [Compound 83] the “Relative cell survival rate (%)” value ([1]; 10 μM) was 102%, the “Relative cell survival rate (%)” value ([1]; 20 μM) was 105% and the “Relative cell survival rate (%)” value ([1]; 30 μM) was 87%. The “Relative cell survival rate (%)” value ([1]; 50 μM) was 77%, the inhibition at 10 µM ([3]; 10 μM) was 0% and the inhibition at 30 µM ([3]; 30 μM) was 63%. The inhibition at 50 µM ([3]; 50 μM) was 100%, the “skin lesions (erythema, thickness, exfoliation of back skin)” value ([4]; 14 days, FIG. 8) was “either minimally present or hardly observed” and the “hyperkeratosis, parakeratosis, irregular acanthosis, infiltration of inflammatory cells (H&E staining)” value ([4]; 14 days, FIG. 9) was “either minimally present or hardly observed”. For the same molecule, the “proportion of B cells in the spleen” value [4, 5] was “increase”, the “proportion of CD11b granulocytes in the spleen” value [4, 5] was “decreased” and the “proportion of T cells in the spleen” value [4, 5] was “increase”.
